US8110596B2, “Triprenyl phenol compound, process for production of triprenyl phenol compound, and thrombolysis enhancer” (Tokyo University of Agriculture and Technology TLO Co., Ltd., priority 2006, dated 2012)

Target: T1, Glu-plg (Homo sapiens, UniProt P00747)
T1 construct: 0.1 mM VLK-pNA, 50 nM Glu-plg and 50 U/ml u-PA
Assay: Plasminogen (plg) activation enhancing activity by urokinase catalysis, VLK-pNA chromogenic assay (Example 30, Table 24)
Assay type: biochemical
Conditions: for Maximum enhancing activity: Concentration by mole / Maximum enhancing activity: Concentration by weight: concentration at which enhancement of plasminogen activation reaches the maximum; for 10-Fold enhancing activity: Concentration by mole / 10-Fold enhancing activity: Concentration by weight: concentration giving 10-fold enhancement of plasminogen activation vs control without SMTP compound (=1); for 10-Fold enhancing activity: Concentration by mole / 10-Fold enhancing activity: Concentration by weight / plasminogen activation enhancing activity compared to orniplabin: 0.1 mM VLK-pNA, 50 nM Glu-plg, 50 U/ml u-PA, 37° C.; for Maximum enhancing activity: Multiplication factor: fold enhancement of plasminogen activation at maximum, control without SMTP compound = 1
Procedure: For the various triprenyl phenol compounds obtained as described above, the performance was evaluated with regard to the thrombolytic activity as the activity of promoting the plasminogen (plg) activation by urokinase catalysis.
The property of plasmin of cutting the peptide bond of a synthetic chromogenic substrate VLK-pNA (Val-Leu-Lys-p-nitroanilide) to generate p-nitroaniline (pNA), was used to measure the yellow coloration of pNA which is absorbed at 405 nm, and thereby the plasminogen activation enhancing activity of a sample is measured. An MTP-500 type microplate reader (Corona Electric Co., Ltd.) was employed as the measuring device, and measurement was performed with a 96-well round bottom microplate.
The measurement was performed under the conditions of kinetic measurement at 37° C. with dual wavelength of 405 nm (activity) to 595 nm (background), for 60 times in every minute.
The purified samples were each made into a DMSO solution or an aqueous solution of sodium salt. This solution was diluted with TBS/T (50 mM Tris-HCl, 100 mM NaCl and 0.01% Tween80, pH 7.4) to provide a sample for measurement.
Furthermore, as a blank, a reaction was performed using a reaction liquid not containing u-PA, and the value obtained therefrom was subtracted from the values obtained from the reactions described above. The absorbance was plotted against the square of time, and the slope was defined as the initial rate of reaction. A reaction solution not added with any triprenyl phenol compound was taken as the control and was compared with the samples, to determine the degree of activity of the respective compounds.
The term “concentration of 10-fold enhancing activity” indicates the concentration at which 10-fold enhancing activity is obtained in the case where the value obtained by using a reaction solution not containing any SMTP compound (control) is taken as 1. The term “maximum enhancing activity” indicates the concentration at which the enhancement of plasminogen activation by an SMTP compound reaches the maximum.

T1 sequence (P00747 20-810 limits assumed): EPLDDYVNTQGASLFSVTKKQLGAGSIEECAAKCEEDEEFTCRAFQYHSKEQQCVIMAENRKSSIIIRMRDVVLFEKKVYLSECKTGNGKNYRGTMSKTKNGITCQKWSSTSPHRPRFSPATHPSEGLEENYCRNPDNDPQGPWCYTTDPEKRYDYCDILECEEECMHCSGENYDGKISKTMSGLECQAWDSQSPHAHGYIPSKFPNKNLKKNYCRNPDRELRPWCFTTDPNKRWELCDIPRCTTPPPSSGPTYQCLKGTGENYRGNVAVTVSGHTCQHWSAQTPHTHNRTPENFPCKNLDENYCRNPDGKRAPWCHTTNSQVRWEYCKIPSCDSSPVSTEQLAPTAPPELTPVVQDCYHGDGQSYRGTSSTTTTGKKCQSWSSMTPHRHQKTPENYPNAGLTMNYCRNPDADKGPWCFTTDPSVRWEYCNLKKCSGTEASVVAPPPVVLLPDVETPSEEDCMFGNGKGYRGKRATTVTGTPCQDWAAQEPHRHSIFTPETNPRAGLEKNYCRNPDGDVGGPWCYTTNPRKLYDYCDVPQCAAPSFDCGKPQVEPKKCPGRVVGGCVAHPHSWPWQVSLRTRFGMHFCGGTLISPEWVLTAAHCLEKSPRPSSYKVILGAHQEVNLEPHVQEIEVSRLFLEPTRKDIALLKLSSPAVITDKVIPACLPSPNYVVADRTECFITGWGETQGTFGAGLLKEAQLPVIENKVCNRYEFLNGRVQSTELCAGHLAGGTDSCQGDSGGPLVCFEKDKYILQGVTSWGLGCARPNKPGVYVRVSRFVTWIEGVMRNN

Structure (SMILES) | Maximum enhancing activity: Concentration by mole [µM] | Maximum enhancing activity: Concentration by weight [µg/mL] | 10-Fold enhancing activity: Concentration by mole [μM] | 10-Fold enhancing activity: Concentration by weight [μg/ml] | Maximum enhancing activity: Multiplication factor | plasminogen activation enhancing activity compared to orniplabin
CC(C)=CCC/C(C)=C/CC[C@]1(C)Oc2c(c(O)cc3c2CN([C@H](C(=O)O)c2cccc(O)c2)C3=O)C[C@@H]1O (racemic) [Compound I-25] | 402 | 215 | 230 | 123 | 29 | –
CC(C)=CCC/C(C)=C/CC[C@]1(C)Oc2c(c(O)cc3c2CN(c2ccc(C(=O)O)cc2)C3=O)C[C@@H]1O [Compound I-2] | 160 | 81 | 83 | 42 | 126 | equivalent or higher
CC(C)=CCC/C(C)=C/CC[C@]1(C)Oc2c(c(O)cc3c2CN(c2cccc(C(=O)O)c2)C3=O)C[C@@H]1O [Compound I-3] | 300 | 151 | 202 | 102 | 52 | –
CC(C)=CCC/C(C)=C/CC[C@]1(C)Oc2c(c(O)cc3c2CN(c2ccccc2C(=O)O)C3=O)C[C@@H]1O [Compound I-4] | 200 | 101 | 133 | 67 | 51 | –
CC(C)=CCC/C(C)=C/CC[C@]1(C)Oc2c(c(O)cc3c2CN(c2ccc(C(=O)O)c(O)c2)C3=O)C[C@@H]1O [Compound I-5] | 200 | 101 | 100 | 52 | 158 | equivalent or higher
CC(C)=CCC/C(C)=C/CC[C@]1(C)Oc2c(c(O)cc3c2CN(c2ccc(C(=O)O)cc2O)C3=O)C[C@@H]1O [Compound I-6] | 290 | 151 | 131 | 68 | 65 | –
CC(C)=CCC/C(C)=C/CC[C@]1(C)Oc2c(c(O)cc3c2CN(c2c(O)cccc2C(=O)O)C3=O)C[C@@H]1O [Compound I-7] | 290 | 151 | 173 | 90 | 37 | –
CC(C)=CCC/C(C)=C/CC[C@]1(C)Oc2c(c(O)cc3c2CN(c2cccc(C(=O)O)c2O)C3=O)C[C@@H]1O [Compound I-8] | 100 | 52 | 71 | 37 | 91 | equivalent or higher
CC(C)=CCC/C(C)=C/CC[C@]1(C)Oc2c(c(O)cc3c2CN(c2ccc(O)c(C(=O)O)c2)C3=O)C[C@@H]1O [Compound I-9] | 120 | 63 | – | – | 8 | –
CC(C)=CCC/C(C)=C/CC[C@]1(C)Oc2c(c(O)cc3c2CN(c2cc(C(=O)O)ccc2O)C3=O)C[C@@H]1O [Compound I-10] | 290 | 151 | 188 | 98 | 43 | –
CC(C)=CCC/C(C)=C/CC[C@]1(C)Oc2c(c(O)cc3c2CN(c2ccc(O)cc2C(=O)O)C3=O)C[C@@H]1O [Compound I-11] | 200 | 101 | 127 | 66 | 65 | –
CC(C)=CCC/C(C)=C/CC[C@]1(C)Oc2c(c(O)cc3c2CN(c2ccc(S(=O)(=O)O)cc2)C3=O)C[C@@H]1O [Compound I-19] | 300 | 163 | 137 | 74 | 60 | –
CC(C)=CCC/C(C)=C/CC[C@]1(C)Oc2c(c(O)cc3c2CN([C@H](C(=O)O)c2ccccc2)C3=O)C[C@@H]1O [Compound I-20] | 289 | 150 | 89 | 46 | 402 | equivalent or higher
CC(C)=CCC/C(C)=C/CC[C@]1(C)Oc2c(c(O)cc3c2CN([C@@H](C(=O)O)c2ccccc2)C3=O)C[C@@H]1O [Compound I-21] | 289 | 150 | 104 | 54 | 44 | –
CC(C)=CCC/C(C)=C/CC[C@]1(C)Oc2c(c(O)cc3c2CN([C@H](C(=O)O)c2ccc(O)cc2)C3=O)C[C@@H]1O [Compound I-22] | 299 | 160 | 211 | 113 | 18 | –
CC(C)=CCC/C(C)=C/CC[C@]1(C)Oc2c(c(O)cc3c2CN([C@@H](C(=O)O)c2ccc(O)cc2)C3=O)C[C@@H]1O [Compound I-23] | 402 | 215 | 331 | 177 | 22 | –
CC(C)=CCC/C(C)=C/CC[C@]1(C)Oc2c(c(O)cc3c2CN([C@@H](Cc2ccc(O)cc2)C(=O)O)C3=O)C[C@H]1O [Compound I-26] | 200 | 110 | 77 | 42 | 76 | equivalent or higher
CC(C)=CCC/C(C)=C/CC[C@]1(C)Oc2c(c(O)cc3c2CN(CCC[C@@H](C(=O)O)N2Cc4c(cc(O)c5c4O[C@@](C)(CC/C=C(\C)CCC=C(C)C)[C@@H](O)C5)C2=O)C3=O)C[C@@H]1O [Orniplabin, reference compound] | 90 | 78 | 65 | 56 | 100 | –
